Measurements from patent US20220249416A1, “SYNERGISTIC COMBINATIONS OF SYNTHETIC LYSINE ANALOGS, DERIVATIVES, MIMETICS, OR PRODRUGS AND PHARMACEUTICAL AGENTS FOR ENHANCED EFFICACY” (priority 2019, published 2022).

Key:
HSV Strain 17syn+ = assay: Acyclovir escape mutants after 10 serial passages in rabbit skin cells; type: cell-based, Herpes Simplex Virus; conditions: 10 passages, 50 μM acyclovir alone or with 2% tranexamic acid; plated with 100 μM acyclovir vs. none
[1] = test system: HO-1, a clinical isolate of HSV-1 that is multiple drug resistant; assay: Viral yields of multiple drug resistant HSV-1 isolate HO-1, plaque assay; type: cell-based, Herpes Simplex Virus Type 1; conditions: 2% tranexamic acid, MOI 5, 24 hpi
cold sores = assay: Topical tranexamic acid on cold sore outbreaks in human subjects; type: in vivo
HSV-1 = assay: Effect of 2% TA on HSV-1 DNA replication; type: cell-based, Herpes Simplex Virus Type 1; conditions: MOI 0.05 and 0.5
rabbit skin cells = conditions: 48 h

| SMILES | Ratio of Acyclovir Resistant (ACVr) Virus (HSV Strain 17syn+) | effect on HO-1 viral yields [1] | time to resolution of cold sore outbreak symptoms (cold sores; 3% (w/v) topically several times a day, three human subjects) | cold sore outbreaks during one year (usual 3 to 5) (cold sores; 3 to 10% (w/v) applied to face daily for approximately one year, one subject) | time to healing of cold sore (cold sores; 5% (w/v) aqueous solution, about 0.25 mL, 5 times, one subject) | outcome of cold sore outbreak (cold sores; 10% (w/v) topically a single time, one subject) | replication of HSV DNA (HSV-1) | CC50 (rabbit skin cells) |
| --- | --- | --- | --- | --- | --- | --- | --- | --- |
| Nc1nc2c(ncn2COCCO)c(=O)[nH]1 [Acyclovir, acyclovir] | 0.0044 | – | – | – | – | – | – | – |
| NC[C@H]1CC[C@H](C(=O)O)CC1 [tranexamic acid] | – | effective | ≤ 48 h | one | ≤ 36 h | the blister was gone and the outbreak had ceased | significantly reduces the replication of HSV DNA | 320 mM |
